Assays:
p-Smad2 [1] = experiment: Activin treatment time course of p-Smad2 in HBMEC; format: cell-based, human; details: HBMEC cells, FIG. 6a
Procedure: (§1) Cells were lysed in 1% Triton lysis buffer and sonicated briefly before centrifuged at 18506 g for 30 min at 4° C. Total cell lysates were added by 2X SDS sample buffer and then subjected to discontinuous SDS-PAGE analysis. Proteins were transferred to nitro-cellulose membranes using a Bio-Rad (Hercules, Calif.) mini transfer apparatus followed by blocking with 5% nonfat milk. Primary antibodies and secondary antibodies were used usually at 1:1000 and 1:10000 dilutions respectively before using an Odyssey system to detect the fluorescence signal.
(§2) FIG. 3 is a drawing depicting a representative model of the TGFβ pathway. […] As depicted in FIG. 3, it is possible to monitor the phosphorylation level of Smad2 or Samd3 as a reporter for TGFβ signaling activity.
To evaluate the specificity of the requirement for THSD1 for TGFβ signaling in endothelial cells we also tested Activin treatment. […] FIG. 7 is a schematic illustrating that THSD1 has a thrombospondin domain (TSP1) that interacts with mature TGFβ ligand.

p-Smad2 [2] = experiment: TGFβ treatment time course of p-Smad2 in HUVEC; format: cell-based, human; details: HUVEC (cell line not restated), FIG. 5c
Procedure: as §1, §2
(§3) To further investigate a potential role for the TGFβ Signaling pathway in the pathology of aneurysms, specifically IA, we also tested TGFβ treatment in different endothelial cells including HBMEC and HUVEC. HBMEC is a primary brain endothelial cells and HUVEC is primary umbilical vein endothelial cells. […] THSD1 knockdown can block TGFβ signaling.

p-Smad2 [3] = experiment: TGFβ treatment time course of p-Smad2 in HBMEC; format: cell-based, human; details: FIG. 5a
Procedure: as §1, §2, §3

p-Smad2 [4] = experiment: TGFβ1 time course of p-Smad2 (Western blot) in HEK293T cells; format: cell-based; details: HEK293T cells treated with TGFβ1 at different time points, FIG. 4a
Procedure: HEK293T cells were maintained in DMEM medium (Corning, 10-013-CV) containing 10% fetal bovine serum (Invitrogen, 10082147), 100 IU penicillin, and 100 μg/ml streptomycin. Transfections of small interfering RNAs and plasmid DNA were performed using lipofectamine 2000 (Life Technologies, 11668027) according to the manufacturer's instructions. Alternatively, for cells such as endothelial cells that are hard to transfect, we will utilize lentiviral system to generate stable cell lines.
as §1
FIG. 3 is a drawing depicting a representative model of the TGFβ pathway. […] As depicted in FIG. 3, it is possible to monitor the phosphorylation level of Smad2 or Samd3 as a reporter for TGFβ signaling activity. […]

Activin
time at which p-smad2 reaches the highest level (p-Smad2 [1]): around 40 mins

TGFβ1: TGFβ ligand; polypeptide used to treat cells and induce Smad2 phosphorylation
time at which p-smad2 reaches the highest level (p-Smad2 [2]): around 40 mins
time at which p-Smad2 reaches the maximum level (p-Smad2 [3]): around 40 mins
time at which p-Smad2 reaches plateau (p-Smad2 [4]): 60 min
